Data as given in publication PMC12834961 (Scientific Reports, 2025).
pKd: −log10 of the molar value.

Target: epidermal growth factor receptor (EGFR) (Homo sapiens, UniProt P00533)
Assay: SPR
Assay type: binding

Chain of epidermal growth factor receptor (EGFR) (P00533 25-1210): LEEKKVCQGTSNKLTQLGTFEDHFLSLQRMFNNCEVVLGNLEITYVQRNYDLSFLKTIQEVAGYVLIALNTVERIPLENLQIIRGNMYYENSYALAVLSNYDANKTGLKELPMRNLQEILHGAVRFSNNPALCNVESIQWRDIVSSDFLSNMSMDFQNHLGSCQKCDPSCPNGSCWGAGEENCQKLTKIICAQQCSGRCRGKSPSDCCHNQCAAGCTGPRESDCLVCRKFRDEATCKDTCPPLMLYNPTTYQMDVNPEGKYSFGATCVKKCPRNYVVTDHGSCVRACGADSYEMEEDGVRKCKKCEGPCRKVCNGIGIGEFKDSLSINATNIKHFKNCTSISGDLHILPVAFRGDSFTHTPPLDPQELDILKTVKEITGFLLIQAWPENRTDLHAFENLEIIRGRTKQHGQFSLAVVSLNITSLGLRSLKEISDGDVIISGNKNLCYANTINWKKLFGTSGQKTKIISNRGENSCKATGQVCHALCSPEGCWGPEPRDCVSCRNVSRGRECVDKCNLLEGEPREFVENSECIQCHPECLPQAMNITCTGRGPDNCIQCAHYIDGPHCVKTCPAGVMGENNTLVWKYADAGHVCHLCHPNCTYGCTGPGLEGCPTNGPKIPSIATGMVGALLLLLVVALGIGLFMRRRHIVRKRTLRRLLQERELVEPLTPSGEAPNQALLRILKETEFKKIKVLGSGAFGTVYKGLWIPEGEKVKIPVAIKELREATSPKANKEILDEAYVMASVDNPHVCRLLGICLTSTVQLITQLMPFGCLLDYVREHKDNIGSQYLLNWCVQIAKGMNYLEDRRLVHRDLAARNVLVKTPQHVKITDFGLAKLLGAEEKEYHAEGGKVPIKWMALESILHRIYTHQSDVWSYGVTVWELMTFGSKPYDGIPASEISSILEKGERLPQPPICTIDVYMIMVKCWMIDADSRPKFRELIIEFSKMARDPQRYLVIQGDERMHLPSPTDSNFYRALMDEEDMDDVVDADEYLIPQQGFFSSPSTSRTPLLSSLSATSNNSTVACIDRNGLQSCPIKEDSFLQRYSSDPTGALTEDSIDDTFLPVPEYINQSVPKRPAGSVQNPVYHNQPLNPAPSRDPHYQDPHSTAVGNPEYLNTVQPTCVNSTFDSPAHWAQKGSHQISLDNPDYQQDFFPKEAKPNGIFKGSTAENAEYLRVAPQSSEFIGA

pKd: ~4.25
Structure (SMILES): O=c1c(-c2ccc(O[C@@H]3O[C@H](CO)[C@@H](O)[C@H](O)[C@H]3O)cc2)coc2cc(O)cc(O)c12 [Sop, Sophoricoside]
